Measured values published in US20260130919A1 (priority 2023, published 2026).

Experiments:
[1] = system: peripheral T-cell lymphoma (PTCL); assay: Randomized Phase 2 dose finding study of Pralatrexate-COP versus CHOP; set-up: species or system human; conditions: in vivo, iv
Procedure: This experiment was performed to identify the suitable dose of Pralatrexate that would be optimal in polychemotherapy for the next study (phase-III) based on safety and ORR (objective response rate) at 3 months. Initially, a lower dose of 20 mg/m^2 was compared to 30 mg/m^2 combined with COP. Therefore, these two dose levels were assigned randomly to 20 patients in addition to COP (Pralatrexate-COP). […] Dose effect on polyglutamate-Pralatrexate, DNA hypomethylation or H3-acetylation was evaluated in this part of the study as a surrogate for PD (pharmacodynamics) drug exposure. […] Further objective of dose finding study was also to evaluate the safety profiles for patients with newly diagnosed PTCL treated with Pralatrexate-COP compared to CHOP alone.
In the dose finding study, each investigational arm was having two dose levels which was compared with CHOP as reference. Treatment was randomized in three arms, Group 1a (Pralatrexate-COP) Pralatrexate 20 mg/m^2, Group 1b Pralatrexate 30 mg/m^2, all added to standard CHOP or COP respectively, and Group 2 for CHOP alone. […]

[2] = cumulative dose of doxorubicin >200 mg/m^2, CHOP regimen, aggressive Non-Hodgkin Lymphoma patients; cited from earlier work
PTCL = conditions: anthracycline-based regimens; cited from earlier work

Row | Structure (SMILES) | effect in combination with COP [1] | patients with cardiac events [2] | survival impact of inclusion in a polychemotherapy regimen (PTCL)
1 | C#CCC(Cc1cnc2nc(N)nc(N)c2n1)c1ccc(C(=O)N[C@@H](CCC(=O)O)C(=O)O)cc1 (mixture of isomers) [Pralatrexate] | synergistic effect |  | 
2 | COc1cccc2c1C(=O)c1c(O)c3c(c(O)c1C2=O)C[C@@](O)(C(=O)CO)C[C@@H]3O[C@H]1C[C@H](N)[C@H](O)[C@H](C)O1 [Doxorubicin] |  | 27% | not associated with a survival improvement
